The test system of this data set is human SMAD7 mRNA. In words: Antisense inhibition of human SMAD7 mRNA expression in Hep3B cells by 3-10-3 cEt gapmers, 10,000 nM, electroporation (Example 2). In kind it is cell-based. The conditions noted are these: approximately 24 hours. The procedure, abridged:
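Hep3B cells (20,000 per well) were electroporated with 10,000 nM 16-mer 3-10-3 cEt gapmer (phosphorothioate, 5-methylcytosine). After about 24 h, SMAD7 mRNA was quantified by qRT-PCR with primer probe set RTS5062, normalised to RIBOGREEN total RNA, and expressed as percent inhibition versus untreated cells.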

[1] abbreviates: Hep3B cells, electroporation with 10,000 nM antisense oligonucleotide, SMAD7 mRNA by RT-PCR (RTS5062), relative to untreated control cells.
The mark [2] stands for this setting: Hep3B cells, electroporation with 10,000 nM antisense oligonucleotide, primer probe set RTS5062, relative to untreated control cells.
The mark [3] stands for this setting: Hep3B cells, electroporation, 10,000 nM antisense oligonucleotide, RTS5062, relative to untreated control cells.
Where [4] appears, read: SMAD7 mRNA, Hep3B cells, 10,000 nM antisense oligonucleotide, electroporation, primer probe set RTS5062, relative to untreated control cells.
Where [5] appears, read: Hep3B cells, 10,000 nM antisense oligonucleotide, electroporation, RT-PCR primer probe set RTS5062, relative to untreated control cells.
Setting [6] is: SMAD7 mRNA, Hep3B cells, electroporation with 10,000 nM antisense oligonucleotide, primer probe set RTS5062, relative to untreated control cells.

Data on 46 substances can be found in patent publication US10517889B2, “Modulators of SMAD7 expression” (Ionis Pharmaceuticals, Inc., priority 2017, dated 2019).

Strand notation (5' to 3'): a small letter for the sugar, then the base; units joined by * are phosphorothioate-linked, units joined directly phosphodiester-linked; [ ] holds rarer units or linkages, { } end groups; capitals alone tell only the bases. k = constrained ethyl (cEt); [5mC] = 5-methylcytosine; d = 2'-deoxy (DNA)

Consider “800019 (kG*kG*k[5mC]*dA*dA*dA*dA*d[5mC]*dT*d[5mC]*dA*d[5mC]*dA*kG*kT*k[5mC]; antisense) [compound 800019]”, for which, under setting [1], the “% Inhibition” value was 61%.
Turning to “799211 (kA*k[5mC]*kA*dT*dA*dA*dA*dT*dA*dA*dT*dG*dA*kT*kG*k[5mC]; antisense) [compound 799211]”, under setting [2], the “% Inhibition” value was found to be 0%.
Take “799581 (k[5mC]*kA*kA*dA*d[5mC]*d[5mC]*dT*dT*d[5mC]*d[5mC]*dG*dA*dA*kA*kG*kG; antisense) [compound 799581]”: the “% inhibition of SMAD7 mRNA expression” value under setting [3] is recorded as 0%.
Turning to “830062 (k[5mC]*k[5mC]*kT*dA*d[5mC]*d[5mC]*dA*d[5mC]*d[5mC]*d[5mC]*d[5mC]*dT*dG*kT*kG*kA; antisense) [compound 830062]”, the “% Inhibition” value under setting [1] worked out at 17%.
Regarding “830106 (k[5mC]*kA*kT*dT*dA*dA*dG*d[5mC]*d[5mC]*d[5mC]*dG*d[5mC]*dT*k[5mC]*kT*k[5mC]; antisense) [compound 830106]”, under setting [1], the “% Inhibition” value is on record as 33%.
As for “830074 (k[5mC]*kT*k[5mC]*dA*dG*dA*dT*d[5mC]*dA*dA*dA*dG*dG*kT*kA*kA; antisense) [compound 830074]”, the “% Inhibition” value under setting [1] came to 43%.
As for “798846 (k[5mC]*kT*k[5mC]*d[5mC]*dG*d[5mC]*dA*d[5mC]*d[5mC]*dT*dT*d[5mC]*dT*kG*k[5mC]*kA; antisense) [compound 798846]”, the “% Inhibition” value under setting [1] was 40%.
For the substance “772552 (antisense kG*k[5mC]*kG*d[5mC]*d[5mC]*dT*dT*d[5mC]*dA*dG*dA*dT*d[5mC]*k[5mC]*kG*k[5mC]) [compound 772552]”, under setting [4], the “% Inhibition” value amounted to 34%.
On to “798990 (antisense kG*kA*k[5mC]*dA*dA*dG*dT*dG*dA*dA*dA*dT*dG*kA*kT*kG) [compound 798990]”, for which, under setting [2], the “% inhibition of SMAD7 mRNA expression” value came to 39%.
Consider “798907 (kG*k[5mC]*kG*dG*d[5mC]*dT*dA*d[5mC]*d[5mC]*dG*dG*d[5mC]*dT*kG*kT*kT; antisense) [compound 798907]”, for which the “% Inhibition” value under setting [5] is 0%.
In the case of “799060 (antisense kG*k[5mC]*k[5mC]*dA*d[5mC]*dT*dA*dG*d[5mC]*dA*dG*dG*d[5mC]*kT*k[5mC]*kG) [compound 799060]”, the “% Inhibition” value under setting [2] was 37%.
With “799058 (antisense kA*kG*k[5mC]*dA*dG*dG*d[5mC]*dT*d[5mC]*dG*d[5mC]*dT*dG*k[5mC]*kT*k[5mC]) [compound 799058]”, the “% Inhibition” value under setting [2] is reported as 0%.
As for “799418 (antisense kG*kT*kA*dA*dA*dT*dG*dG*dT*d[5mC]*d[5mC]*dA*dT*kG*kT*kA) [compound 799418]”, the “% inhibition of SMAD7 mRNA expression” value under setting [2] is given as 12%.
Turning to “798737 (antisense k[5mC]*kA*kG*dA*dT*d[5mC]*d[5mC]*dG*d[5mC]*d[5mC]*dT*d[5mC]*dG*kG*k[5mC]*kG) [compound 798737]”, the “% Inhibition” value under setting [1] amounted to 2%.
In the case of “799690 (antisense kA*kG*k[5mC]*dT*dA*d[5mC]*dA*dG*dT*d[5mC]*dA*dG*dG*k[5mC]*kT*kT) [compound 799690]”, under “Hep3B cells, electroporation with 10,000 nM antisense oligonucleotide, RTS5062, percent inhibition of SMAD7 mRNA relative to untreated control cells”, the “% Inhibition” value is 51%.
For the substance “799632 (k[5mC]*kT*kG*d[5mC]*d[5mC]*dA*dA*dA*dT*d[5mC]*dA*d[5mC]*dA*kA*kA*kG; antisense) [compound 799632]”, the “% inhibition of SMAD7 mRNA expression” value under setting [3] was determined as 48%.
Take “829939 (kA*k[5mC]*kA*dT*dT*d[5mC]*dA*dG*d[5mC]*dT*dA*dG*dG*kT*kG*kA; antisense) [compound 829939]”: the “% Inhibition” value under setting [6] was 34%.
For “829831 (kG*kA*k[5mC]*d[5mC]*dG*dA*dT*d[5mC]*d[5mC]*d[5mC]*d[5mC]*dA*dG*kG*k[5mC]*kT; antisense) [compound 829831]”, the “% Inhibition” value under setting [6] was 9%.
As to “830206 (kT*kG*kA*d[5mC]*dT*d[5mC]*dA*dT*d[5mC]*dA*dG*dG*d[5mC]*kA*kT*kT; antisense) [compound 830206]”, the “% Inhibition” value under setting [1] was determined as 51%.
Consider “799895 (antisense k[5mC]*kT*kG*dA*dG*dA*dG*dT*dG*dT*dA*dG*dG*kA*kG*kA) [compound 799895]”, for which the “% Inhibition” value under setting [5] was found to be 50%.
Turning to “798828 (kA*kT*k[5mC]*d[5mC]*dA*dG*dA*dG*dA*dG*dG*dG*d[5mC]*kT*k[5mC]*k[5mC]; antisense) [compound 798828]”, the “% Inhibition” value under setting [1] is recorded as 18%.
As for “798970 (antisense kT*k[5mC]*k[5mC]*dT*dG*d[5mC]*d[5mC]*dG*dA*dT*d[5mC]*dA*dT*kA*k[5mC]*k[5mC]) [compound 798970]”, under setting [2], the “% inhibition of SMAD7 mRNA expression” value stood at 41%.
Take “799199 (antisense kG*kG*kA*dG*dT*d[5mC]*d[5mC]*dT*dT*dT*d[5mC]*dT*d[5mC]*kT*k[5mC]*kT) [compound 799199]”: the “% inhibition of SMAD7 mRNA expression” value under setting [2] stood at 24%.
Take “790679 (kA*kG*kG*dT*dT*dA*dA*dT*d[5mC]*dA*d[5mC]*dT*dT*k[5mC]*k[5mC]*kT; antisense) [compound 790679]”: the “% Inhibition” value under setting [4] was found to be 13%.
With “772540 (antisense kA*kG*kG*d[5mC]*dG*dA*dG*dG*dA*dG*dA*dA*dA*kA*kG*kT) [compound 772540]”, the “% Inhibition” value under setting [4] was 10%.
“799214 (kT*kT*k[5mC]*dT*dT*dG*dT*dT*dT*dA*dT*dA*d[5mC]*kA*k[5mC]*kA; antisense) [compound 799214]”: the “% inhibition of SMAD7 mRNA expression” value under setting [2] came out at 46%.
Regarding “799850 (kG*k[5mC]*kA*dA*dT*dA*dA*dA*dT*d[5mC]*dA*dA*d[5mC]*k[5mC]*kA*kG; antisense) [compound 799850]”, the “% Inhibition” value under setting [1] is 49%.
Take “829975 (k[5mC]*kA*kA*dA*dA*dG*dA*dG*dG*d[5mC]*d[5mC]*dG*d[5mC]*k[5mC]*kT*kG; antisense) [compound 829975]”: under setting [6], the “% Inhibition” value was 32%.
Consider “799574 (k[5mC]*kA*kT*dT*d[5mC]*dA*dG*dG*dG*dT*dT*dT*dA*kA*kA*kA; antisense) [compound 799574]”, for which, under setting [3], the “% inhibition of SMAD7 mRNA expression” value is on record as 7%.
On to “798714 (antisense kG*kG*k[5mC]*d[5mC]*dG*d[5mC]*d[5mC]*dG*d[5mC]*d[5mC]*dA*d[5mC]*d[5mC]*kG*kG*k[5mC]) [compound 798714]”, for which the “% Inhibition” value under setting [1] came to 0%.
On the same count and under the same terms, as for “830031 (antisense kT*kA*k[5mC]*d[5mC]*dT*dA*dA*dT*dG*dT*d[5mC]*dA*dA*k[5mC]*kA*k[5mC]) [compound 830031]”, the figure is 44%.
Consider “799100 (antisense kG*kA*kA*dA*dA*dA*d[5mC]*d[5mC]*dT*dG*dA*dT*dG*kT*k[5mC]*kA) [compound 799100]”, for which, under setting [2], the “% Inhibition” value was determined as 38%.
For the substance “829938 (kA*kT*kT*d[5mC]*dA*dG*d[5mC]*dT*dA*dG*dG*dT*dG*kA*kT*kA; antisense) [compound 829938]”, under setting [6], the “% Inhibition” value was determined as 17%.
On to “800003 (kA*kG*kA*dA*d[5mC]*dA*d[5mC]*dG*dG*dG*d[5mC]*dA*d[5mC]*kG*k[5mC]*kG; antisense) [compound 800003]”, for which, under setting [1], the “% Inhibition” value turned out to be 24%.
On to “799204 (antisense k[5mC]*kT*k[5mC]*dA*dG*dG*dT*dT*dT*dT*dT*dT*dT*kT*k[5mC]*kA) [compound 799204]”, for which, under setting [2], the “% inhibition of SMAD7 mRNA expression” value amounted to 36%.
As for “799602 (k[5mC]*k[5mC]*kA*dT*dT*dA*dT*dG*dA*dA*dT*dA*d[5mC]*kA*k[5mC]*kT; antisense) [compound 799602]”, the “% inhibition of SMAD7 mRNA expression” value under setting [3] was 51%.
Regarding “829858 (antisense kT*kG*k[5mC]*dT*d[5mC]*d[5mC]*dG*d[5mC]*dA*d[5mC]*d[5mC]*dT*dT*k[5mC]*kT*kG) [compound 829858]”, the “% Inhibition” value under setting [6] worked out at 59%.
For the substance “799250 (antisense kT*kG*k[5mC]*dG*d[5mC]*dG*dG*d[5mC]*d[5mC]*dA*d[5mC]*dG*dA*k[5mC]*kA*kG) [compound 799250]”, under setting [2], the “% inhibition of SMAD7 mRNA expression” value came to 21%.
As to “798780 (kA*kA*kG*dA*dT*dT*d[5mC]*dA*d[5mC]*dA*dG*d[5mC]*dA*kA*k[5mC]*kA; antisense) [compound 798780]”, the “% inhibition of SMAD7 mRNA expression” value under setting [2] is given as 58%.
Turning to “799961 (antisense k[5mC]*k[5mC]*kT*dA*dA*dA*dA*d[5mC]*dA*dG*dG*dG*dT*kT*k[5mC]*k[5mC]) [compound 799961]”, under setting [1], the “% Inhibition” value worked out at 20%.
In the case of “829940 (kG*kT*k[5mC]*dA*dG*dT*dT*dG*dG*dT*dT*dT*dG*kA*kG*kA; antisense) [compound 829940]”, the “% inhibition of SMAD7 mRNA expression” value (Hep3B cells, electroporation, 10,000 nM, 3-10-3 cEt gapmers targeting SEQ ID NO: 3 and 4) turned out to be 14%.
With “799388 (antisense kT*kT*kG*d[5mC]*dA*dG*dA*dA*dT*dT*d[5mC]*d[5mC]*dA*kG*kG*kA) [compound 799388]”, the “% Inhibition” value under setting [1] was determined as 41%.
As to “799072 (antisense kG*k[5mC]*kA*dG*dG*dA*dA*dG*dG*dG*dA*dA*dT*kA*kA*kG) [compound 799072]”, the “% inhibition of SMAD7 mRNA expression” value under setting [2] stood at 55%.
As for “798827 (kA*kG*kA*dG*dA*dG*dG*dG*d[5mC]*dT*d[5mC]*d[5mC]*dT*kG*kG*kA; antisense) [compound 798827]”, the “% Inhibition” value under setting [5] is on record as 21%.
With “830156 (antisense k[5mC]*kT*kG*dT*dG*d[5mC]*d[5mC]*dT*d[5mC]*dA*dG*d[5mC]*dA*kG*kT*kT) [compound 830156]”, the “% Inhibition” value under setting [1] is recorded as 48%.
With “798768 (kG*kA*kG*dA*dT*d[5mC]*d[5mC]*dG*dG*d[5mC]*d[5mC]*dA*d[5mC]*k[5mC]*kT*kG; antisense) [compound 798768]”, the “% Inhibition” value under setting [1] amounted to 42%.

By % Inhibition is commonly meant how much of the control response was suppressed. Lower therefore signals little suppression.
